Measurements published in ChEMBL document CHEMBL5604065, “ASAP - DENV-3 NS2B-NS3 protease fluorescence dose response” (2024).

Target: T1, NS3 protease (dengue virus type 3, UniProt A0A0B5JFF1)
T1 sequence (A0A0B5JFF1 whole entry): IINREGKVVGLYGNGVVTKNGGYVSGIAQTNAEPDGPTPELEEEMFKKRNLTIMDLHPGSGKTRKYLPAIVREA
Assay: Functional biochemical assay to identify treatments for viral infectious disease that targets Dengue virus type 3 NS2B-NS3 protease. Utilizing a direct enzyme activity measurement method, reading the fluorescence intensity is used to characterize the relative potency of inhibitors as IC50.
Design: species or system Philippines/H87/1956

Row | SMILES | IC50
1 | N#Cc1cccc(-c2nc3c(C(=O)Nc4ccc5c(c4)CNC5)cc(F)cc3[nH]2)c1 | 2.31 µM
2 | O=C(Nc1ccc2c(c1)CNC2)c1cc(Cl)cc2c1CCC2 | > 99.5 µM
3 | CC(C)CNC(=O)c1cc(Cl)ccc1NS(=O)(=O)c1ccc(Oc2ccccc2Cl)cc1 | 12.1 µM
4 | C=CC[C@H]1NCc2cc(N[C@H](C(=O)NC(C)C)c3cc(Cl)cc4[nH]ncc34)ccc21 | 55.1 µM
5 | O=C(Nc1cc(Cl)cc(C(=O)Nc2cccc(-n3nn[nH]c3=O)c2)c1)OCc1ccccc1 | 10.5 µM
6 | N#C[C@H](Nc1ccc2c(c1)CNC2)c1cc(Cl)cc(C2CC2)c1 | > 99.5 µM
7 | O=C(Nc1ccc2c(c1)CNC2)c1cc(F)c2[nH]ccc2c1 | > 99.5 µM
